Laboratory results taken from US20050137261A1, “Method for treating inflammatory bowel diseases” (MEIJI DAIRIES CORPORATION, priority 2003, published 2005).

What was measured:
[1] = test system: dextran sodium sulfate (DSS) colitis; assay: DSS colitis in mice: survival rate and HE-staining of the large intestine; format: in vivo, C57/BL6 Mice
Protocol: C57/BL6 Mice (female, 8 weeks old) were employed. They were bred under SPF conditions, and then used in the test. 2.5% Dextran sodium sulfate (DSS, MW 50,000) was added to drinking water (distilled water) for mice, and the mice were allowed to drink the resultant water freely for 7 days (induction of colitis). Subsequently, DHNA was administered to the mice in the following manner. DHNA was dissolved in dimethyl sulfoxide (DMSO) (0.1 g/0.5 mL). The resultant neat solution, along with ascorbic acid for stabilizing DHNA (1%), was added to drinking water (distilled water) for mice, and the mice were allowed to drink the resultant water freely for 7 days. DHNA concentration was 0.6 mg/kg or 2 mg/kg. Distilled water to which DMSO and ascorbic acid had been added in equal amounts was employed as a control group. Survival rate was that as determined for the mice on day 10 after starting administration of DHNA. The large intestine was removed from each mouse, and fixed with periodate-lysine-paraformaldehyde (PLP), whereby frozen slices were prepared. Through use of the thus-obtained frozen sections, immunohistochemical staining using labeled streptavidin-biotin (LSAB) and HE-staining were performed. In the immunohistochemical staining, anti-MAdCAM-1 and anti-β7integrin were used as primary antibodies and biotin-labeled FITC was employed as a secondary antibody.

β7 positive cells = assay: Immunohistochemical staining (LSAB) of large intestine sections, DSS colitis, anti-β7integrin; format: in vivo, C57/BL6 Mice; settings: large intestine frozen sections, DHNA administration group
Protocol: (§1) C57/BL6 Mice (female, 8 weeks old) were employed. They were bred under SPF conditions, and then used in the test.
(§2) 2.5% Dextran sodium sulfate (DSS, MW 50,000) was added to drinking water (distilled water) for mice, and the mice were allowed to drink the resultant water freely for 7 days (induction of colitis). Subsequently, DHNA was administered to the mice in the following manner.
(§3) DHNA was dissolved in dimethyl sulfoxide (DMSO) (0.1 g/0.5 mL). The resultant neat solution, along with ascorbic acid for stabilizing DHNA (1%), was added to drinking water (distilled water) for mice, and the mice were allowed to drink the resultant water freely for 7 days. DHNA concentration was 0.6 mg/kg or 2 mg/kg. Distilled water to which DMSO and ascorbic acid had been added in equal amounts was employed as a control group.
(§4) The large intestine was removed from each mouse, and fixed with periodate-lysine-paraformaldehyde (PLP), whereby frozen slices were prepared. Through use of the thus-obtained frozen sections, immunohistochemical staining using labeled streptavidin-biotin (LSAB) and HE-staining were performed. In the immunohistochemical staining, anti-MAdCAM-1 and anti-β7integrin were used as primary antibodies and biotin-labeled FITC was employed as a secondary antibody.

MAdCAM-1 = assay: Immunohistochemical staining (LSAB) of large intestine sections, DSS colitis, anti-MAdCAM-1; format: in vivo, C57/BL6 Mice; settings: large intestine frozen sections, DHNA administration group
Protocol: as §1, §2, §3, §4

Bifidobacterium bifidum = settings: taught by WO03/016544; cited from earlier work
[2] = subject of milk intolerance; DHNA or its salts; taught by WO03/016544; cited from earlier work

Compound: O=C(O)c1cc(O)c2ccccc2c1O [DHNA, 1,4-dihydroxy-2-naphthoic acid]
- Survival rate ([1]; day 10 after starting the test, DHNA 0.6 mg/kg or 2 mg/kg in drinking water for 7 days after 2.5% DSS for 7 days, versus control group): significantly high
- HE-staining findings: ulcer and erosion in the epithelium, cellular infiltration, submucosal thickening ([1]; large intestine, DHNA administration group versus control group): suppression of the above conditions was observed
- Development of DSS enteritis ([1]; overall conclusion, by suppressing infiltration of activated immunocytes): suppress development of DSS enteritis
- β7 positive cells (immunohistochemical staining) (β7 positive cells): reduced
- Expression of adhesion molecule MAdCAM-1 (MAdCAM-1): suppressed
- Proliferation of Bifidobacterium bifidum (Bifidobacterium bifidum): stimulating proliferation
- Abdominal discomfort after ingestion of milk [2]: mitigate abdominal discomfort
